From patent US20160176867A1, “MODIFIED BET-PROTEIN-INHIBITING DIHYDROQUINOXALINONES AND DIHYDROPYRIDOPYRAZINONES” (BAYER PHARMA AKTIENGESELLSCHAFT, priority 2013, published 2016) come the findings set out here.

In test [1] the target is T1, BRD4 bromo domain 2 [BRD4(2)] (Homo sapiens, UniProt O60885).
T1 construct: N-terminally His6-tagged BRD4(2) (amino acids 357-445); made in house; host or cells: E. coli
Briefly: BRD4/acetylated peptide H4 binding assay (TR-FRET), BRD4 bromo domain 2. As to conditions: inhibition of BRD4(2)/Ac-H4 peptide interaction. From the text: (§1) Protein-Protein Interaction Assay: BRD4/Acetylated Peptide H4 Binding Assay
To assess the BRD4(2) binding strength of the substances described in this application, the ability thereof to inhibit the interaction between BRD4(2) and acetylated histone H4 in a dose-dependent manner was quantified.
(§2) For this purpose, a time-resolved fluorescence resonance energy transfer (TR-FRET) assay was used, which measures the binding between N-terminally His6-tagged BRD4(2) (amino acids 357-445) and a synthetic acetylated histone H4 (Ac-H4) peptide with sequence SGRGK(Ac)GGK(Ac)GLGK(Ac)GGAK(Ac)RHRKVLRDNGSGSK-biotin. The recombinant BRD4(2) protein produced in-house according to Filippakopoulos et al., Nature, 2010, 468:1119-1123 and Cell, 2012, 149:214-231, was expressed in E. coli and purified by means of (Ni-NTA) affinity and (Sephadex G-75) size exclusion chromatography. The Ac-H4 peptide can be purchased, for example, from Biosyntan (Berlin, Germany).
(§3) In the assay, typically 11 different concentrations of each substance (0.1 nM, 0.33 nM, 1.1 nM, 3.8 nM, 13 nM, 44 nM, 0.15 μM, 0.51 μM, 1.7 μM, 5.9 μM and 20 μM) were analysed as duplicates on the same microtitre plate. For this purpose, 100-fold concentrated solutions in DMSO were prepared by serial dilutions (1:3.4) of a 2 mM stock solution into a clear, 384-well microtitre plate (Greiner Bio-One, Frickenhausen, Germany). From this, 50 nl were transferred into a black test plate (Greiner Bio-One, Frickenhausen, Germany). The test was started by the addition of 2 μl of a 2.5-fold concentrated BRD4(2) solution (final concentration typically 100 nM in the 5 μl of reaction volume) in aqueous assay buffer [50 mM HEPES pH 7.5, 50 mM sodium chloride (NaCl); 50 mM potassium fluoride (KF); 0.25 mM CHAPS and 0.05% serum albumin (BSA)] to the substances in the test plate. This was followed by a 10-minute incubation step at 22° C. for the pre-equilibration of putative complexes between BRD4(2) and the substances. Subsequently, 3 μl of a 1.67-fold concentrated solution (in assay buffer) consisting of Ac-H4 peptide (83.5 nM) and TR-FRET detection reagents [83.5 nM anti-6His-XL665 (Cisbio Bioassays, Codolet, France) and 12.52 nM streptavidin-Eu), (Perkin Elmer, #W1024)] in assay buffer were added.
(§4) The mixture was then incubated in the dark at 22° C. for one hour and then at 4° C. for at least 3 hours and for no longer than overnight. The formation of BRD4(2)/Ac-H4 complexes was determined by the measurement of the resonance energy transfer from the streptavidin-Eu chelate to the anti-6His-XL665 antibody present in the reaction. For this purpose, the fluorescence emission was measured at 620 nm and 665 nm after excitation at 330-350 nm in a TR-FRET measuring instrument, for example a Rubystar or Pherastar (both from BMG Lab Technologies, Offenburg, Germany) or a Viewlux (Perkin-Elmer). The ratio of the emissions at 665 nm and at 622 nm was taken as an indicator of the amount of BRD4(2)/Ac-H4 complexes formed.
The data (ratios) obtained were normalized, with 0% inhibition corresponding to the mean from the measurements for a set of controls (typically 32 data points) in which all the reagents were present. In these, in place of test substances, 50 nl of DMSO (100%) were used. Inhibition of 100% corresponded to the mean from the measurements for a set of controls (typically 32 data points) in which all the reagents except BRD4(2) were present. The IC50 was determined by regression analysis based on a 4-parameter equation (minimum, maximum, IC50, Hill; Y=max+(min−max)/(1+(X/IC50)Hill)).

Test [2] concerns the target T2, BRD4 bromo domain 1 [BRD4(1)] (Homo sapiens, UniProt O60885).
T2 construct: N-terminally His6-tagged BRD4(1) (amino acids 67-152); made in house; host or cells: E. coli
Briefly: BRD4/acetylated peptide H4 binding assay (TR-FRET), BRD4 bromo domain 1. As to conditions: inhibition of BRD4(1)/Ac-H4 peptide interaction.
Source text: as §1
To assess the BRD4(1) binding strength of the substances described in this application, the ability thereof to inhibit the interaction between BRD4(1) and acetylated histone H4 in a dose-dependent manner was quantified.
as §2, with “BRD4(1)” for “BRD4(2)”, “67-152)” for “357-445)”, “GRGK(Ac)GGK(Ac)GLGK(Ac)GGAK(Ac)RHGSGSK-biotin.” for “SGRGK(Ac)GGK(Ac)GLGK(Ac)GGAK(Ac)RHRKVLRDNGSGSK-biotin.”
as §3, with “concentrated BRD4(1)” for “concentrated BRD4(2)”, “typically 10” for “typically 100”, “chloride (NaCl),” for “chloride (NaCl); 50 mM potassium fluoride (KF);”, “between BRD4(1)” for “between BRD4(2)”, “substances.” for “substances. Subsequently, 3 μl of a 1.67-fold concentrated solution (in assay buffer) consisting of Ac-H4 peptide (83.5 nM) and TR-FRET detection reagents [83.5 nM anti-6His-XL665 (Cisbio Bioassays, Codolet, France) and 12.52 nM streptavidin-Eu), (Perkin Elmer, #W1024)] in assay buffer were added.”
as §4, with “BRD4(1)/Ac-H4” for “BRD4(2)/Ac-H4”, “cryptate” for “chelate”
The data (ratios) obtained were normalized, with 0% inhibition corresponding to the mean from the measurements for a set of controls (typically 32 data points) in which all the reagents were present. In these, in place of test substances, 50 nl of DMSO (100%) were used. Inhibition of 100% corresponded to the mean from the measurements for a set of controls (typically 32 data points) in which all the reagents except BRD4(1) were present. The IC50 was determined by regression analysis based on a 4-parameter equation (minimum, maximum, IC50, Hill; Y=max+(min−max)/(1+(X/IC50)Hill)).
For orientation: In TR-FRET formats the signal depends on donor and acceptor labels being close together.

In general, IC50 refers to the concentration needed to halve the response being measured. Low values mean inhibition by little substance, high ones a need for much substance. On to `Cc1ccc(Nc2ccc3c(n2)N(C2CCOCC2)[C@H](C)C(=O)N3C)cc1S(N)(=O)=O` [Example 63, 5-{[(3R)-1,3-dimethyl-2-oxo-4-(tetrahydro-2H-pyran-4-yl)-1,2,3,4-tetrahydropyrido[2,3-b]pyrazin-6-yl]amino}-2-methylbenzene-sulphonamide], for which the half-inhibitory concentration (IC50) in test [1] is 158 nM; in test [2], 163 nM.

`Cc1cccc(N2c3nc(Nc4cccc(S(=O)(=O)N5CCOCC5)c4)ccc3N(C)C(=O)C2C)c1` (stereo not shown) [Example 64, 1,3-dimethyl-4-(3-methylphenyl)-6-{[3-(morpholin-4-ylsulphonyl)phenyl]-amino}-3,4-dihydropyrido[2,3-b]pyrazin-2(1H)-one]: the IC50 was 197 nM in test [1] and 271 nM in test [2].

As for `Cc1cccc(N2c3nc(Nc4cccc(S(=O)(=O)NC5CCN(C)CC5)c4)ccc3N(C)C(=O)C2C)c1` (stereo not shown) [Example 65, 3-{[1,3-dimethyl-4-(3-methylphenyl)-2-oxo-1,2,3,4-tetrahydropyrido-[2,3-b]pyrazin-6-yl]amino}-N-(1-methylpiperidin-4-yl)benzenesulphonamide], the IC50 in test [1] came to 589 nM; in test [2] it was 386 nM.

`C[C@@H]1C(=O)N(C)c2ccc(Nc3cccc(S(=O)(=O)N4CCN(CC(F)(F)F)CC4)c3)nc2N1C1CCN(C(=O)OC(C)(C)C)CC1` [Example 66, tert-butyl 4-[(3R)-1,3-dimethyl-2-oxo-6-[(3-{[4-(2,2,2-trifIuoroethyl)-piperazin-1-yl]sulphonyl}-phenl)amino]-2,3-dihydropyrido[2,3-b]pyrazin-4(1H)-yl]piperidine-1-carboxylate]: the IC50 was determined as 308 nM in test [1] and 1110 nM in test [2].

As to `CC1C(=O)N(C)c2ccc(Nc3cccc(S(=O)(=O)N4CCN(C)CC4)c3)nc2N1c1ccc(N2CCN(C(=O)OC(C)(C)C)CC2)cc1` (stereo not shown) [Example 67, tert-butyl 4-{4-[1,3-dimethyl-6-({3-[(4-methylpiperazin-1-yl)sulphonyl]phenl}-amino)-2-oxo-2,3-dihydropyrido[2,3-b]pyrazin-4(1H)-yl]phenyl}piperazine-1-carboxylate], the IC50 in test [1] came to 5190 nM; in test [2], 4380 nM.

In the case of `C[C@@H]1C(=O)N(C)c2ccc(Nc3cccc(S(=O)(=O)N(C)C)c3)cc2N1C1CCN(C(=O)OC(C)(C)C)CC1` [Example 68, tert-butyl 4-[(2R)-7-{[3-(dimethylsulphamoyl)-phenyl]amino}-2,4-dimethyl-3-oxo-3,4-dihydroquinoxalin-1(2H)-yl]piperidine-1-carboxylate], the IC50 in test [1] turned out to be 76 nM; in test [2], 433 nM.

With `C[C@@H]1C(=O)N(C)c2ccc(Nc3cccc(S(=O)(=O)N(C)C)c3)cc2N1Cc1ccccc1` [Example 69, 3-{[(3R)-4-benzyl-1,3-dimethyl-2-oxo-1,2,3,4-tetrahydroquinoxalin-6-yl]amino}-N,N-dimethyl-benzenesulphonamide], the IC50 in test [1] is 63 nM; in test [2] it was 496 nM.

For the compound `C[C@@H]1C(=O)N(C)c2ccc(N(C)c3cccc(S(=O)(=O)N(C)C)c3)cc2N1C1CCN(C(=O)OC(C)(C)C)CC1` [Example 70, tert-butyl 4-[(2R)-7-{[3-(dimethylsulphamoyl)-phenyl](methyl)amino}-2,4-dimethyl-3-oxo-3,4-dihydroquinoxalin-1(2H)-yl]piperidine-1-carboxylate], the IC50 in test [1] is 384 nM; in test [2], 749 nM.

As for `C[C@@H]1C(=O)N(C)c2ccc(Nc3cccc(S(=O)(=O)N4CCN(C)CC4)c3)cc2N1C1CCOCC1` [Example 71, (3R)-1,3-dimethyl-6-({3-[(4-methylpiperazin-1-yl)sulphonyl]phenl}-amino)-4-(tetrahydro-2H-pyran-4-yl)-3,4-dihydroquinoxalin-2(1H)-one], the IC50 worked out at 315 nM in test [1] and 232 nM in test [2].

Take `CC(C)N1CCN(C(=O)c2cccc(Nc3ccc4c(n3)N(Cc3ccccc3)[C@H](C)C(=O)N4C)c2)CC1` [Example 76, (3R)-4-benzyl-6-({3-[(4-isopropylpiperazin-1-yl)carbonyl]phenyl}-amino)-1,3-dimethyl-3,4-dihydropyrido[2,3-b]pyrazin-2(1H)-one]: the IC50 in test [1] amounted to 108 nM; in test [2] it was 143 nM.

`C[C@@H]1C(=O)N(C)c2ccc(Nc3cccc(C(=O)N4CCN(C)CC4)c3)nc2N1C1CCN(C(=O)OC(C)(C)C)CC1` [Example 78, tert-butyl 4-[(3R)-1,3-dimethyl-6-({3-[(4-methylpiperazin-1-yl)carbonyl]phenyl}-amino)-2-oxo-2,3-dihydropyrido[2,3-b]pyrazin-4(1H)-yl]piperidine-1-carboxylate]: the figures for the IC50 in test [1] and in test [2] were 157 nM and 151 nM, respectively.
